By Ki is commonly meant a dissociation constant, usually derived from enzyme kinetics or from competition with a known ligand.

SMILES strings stand for the structures.

Assay type in all cases: cell membranes
The target in test [1] is Mu-type opioid receptor (Homo sapiens, UniProt P35372). Description: Displacement of [3H]-DAMGO from human MOR extracted from HEK293 cell membrane assessed as inhibition constant. A general note: In a radioligand displacement assay an active substance lowers the binding of a labelled ligand.
Chain of Mu-type opioid receptor (P35372 whole entry): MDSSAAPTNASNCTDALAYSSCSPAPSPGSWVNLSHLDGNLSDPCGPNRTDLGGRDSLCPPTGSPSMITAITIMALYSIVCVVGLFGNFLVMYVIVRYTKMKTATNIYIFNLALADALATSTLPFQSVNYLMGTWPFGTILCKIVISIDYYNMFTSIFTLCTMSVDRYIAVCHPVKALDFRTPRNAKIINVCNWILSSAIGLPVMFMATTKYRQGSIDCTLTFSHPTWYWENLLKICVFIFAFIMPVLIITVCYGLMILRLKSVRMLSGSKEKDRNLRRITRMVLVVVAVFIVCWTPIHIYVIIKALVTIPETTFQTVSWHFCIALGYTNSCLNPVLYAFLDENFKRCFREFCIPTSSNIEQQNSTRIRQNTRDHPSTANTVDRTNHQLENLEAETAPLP
The target of test [2] is Delta-type opioid receptor (Homo sapiens, UniProt P41143). Description: Displacement of [3H]DPDPE from human DOR extracted from HEK293 cell membrane assessed as inhibition constant.
Chain of Delta-type opioid receptor (P41143 whole entry): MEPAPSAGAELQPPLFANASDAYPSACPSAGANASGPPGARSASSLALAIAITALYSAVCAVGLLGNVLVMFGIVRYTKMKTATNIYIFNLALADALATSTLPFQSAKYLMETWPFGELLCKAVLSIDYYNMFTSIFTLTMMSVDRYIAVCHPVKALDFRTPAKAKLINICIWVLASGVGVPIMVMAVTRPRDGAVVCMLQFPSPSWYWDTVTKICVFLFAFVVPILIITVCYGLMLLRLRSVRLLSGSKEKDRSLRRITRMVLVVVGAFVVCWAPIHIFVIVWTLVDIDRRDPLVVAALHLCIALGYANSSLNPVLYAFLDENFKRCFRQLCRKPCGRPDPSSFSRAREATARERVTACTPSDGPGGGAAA
The target in test [3] is Kappa-type opioid receptor (Homo sapiens, UniProt P41145). Description: Displacement of [3H]U-69593 from human KOR extracted from HEK293 cell membrane assessed as inhibition constant.
Chain of Kappa-type opioid receptor (P41145 whole entry): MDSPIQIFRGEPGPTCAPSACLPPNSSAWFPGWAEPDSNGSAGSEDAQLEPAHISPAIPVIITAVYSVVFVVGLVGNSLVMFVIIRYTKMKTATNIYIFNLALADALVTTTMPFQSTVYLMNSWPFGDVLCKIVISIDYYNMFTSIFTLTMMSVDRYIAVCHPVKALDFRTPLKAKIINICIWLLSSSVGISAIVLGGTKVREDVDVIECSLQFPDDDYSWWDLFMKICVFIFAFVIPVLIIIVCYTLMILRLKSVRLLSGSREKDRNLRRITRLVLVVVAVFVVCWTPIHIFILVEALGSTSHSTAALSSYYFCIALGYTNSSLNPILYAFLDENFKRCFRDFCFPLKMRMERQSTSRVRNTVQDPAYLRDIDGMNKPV

On to `N[C@@]12CCC(=O)C3Oc4c(O)ccc5c4[C@@]31CCN(CC1CC1)C2C5` (some centres undefined), for which the Ki in test [1] is 0.82 nM; in test [2], 19 nM; in test [3], 1.8 nM.

With `CC(=O)C(C(C)=O)=C1N(CC2CC2)C2Cc3ccc(O)c4c3[C@]35CCN1[C@]23CCC(=O)C5O4` (some centres undefined), the Ki in test [1] stood at 690 nM; in test [2], 1300 nM; in test [3] it was 1400 nM.

Turning to `CC(=O)/C=C1/NC2Cc3ccc(O)c4c3[C@]35CCN1[C@]23CCC(=O)C5O4` (some centres undefined), the Ki in test [1] was 380 nM; in test [2], over 10000 nM; in test [3], 310 nM.

Consider `CN1CN2CC[C@]34c5c6ccc(O)c5OC3C(=O)CC[C@]24C1C6` (some centres undefined), for which the values for the Ki in test [1], in test [2] and in test [3] were 150 nM, 160 nM and 310 nM, respectively.

With `O=C1CC[C@@]23C4Cc5ccc(O)c6c5[C@@]2(CCN3CN4CCc2ccccc2)C1O6` (some centres undefined), the Ki in test [1] was found to be 22 nM; in test [2] it was 25 nM; in test [3], 5.2 nM.

Turning to `C[C@H](O)C[C@H]1NC2Cc3ccc(O)c4c3[C@]35CCN1[C@]23CCC(=O)C5O4` (some centres undefined), the values for the Ki in test [1], in test [2] and in test [3] were 57 nM, 320 nM and 120 nM, respectively.

As for `O=C1CC[C@]23C4[C@@H](CN(CC5CC5)C[N@@]42)[C@]32c3cccc(O)c3OC12` (some centres undefined), the values for the Ki in test [1], in test [2] and in test [3] were 20 nM, 64 nM and 21 nM, respectively.

`C[C@@H](O)C[C@H]1NC2Cc3ccc(O)c4c3[C@]35CCN1[C@]23CCC(=O)C5O4` (some centres undefined): the figures for the inhibition constant Ki in test [1], in test [2] and in test [3] were 69 nM, 620 nM and 390 nM, respectively.
